# Results reported in patent US20240180872A1, “METHODS AND COMPOUNDS OF CANNABIDIOL, MELATONIN AND AKBA FOR TREATING PANCREATIC CANCER” (priority 2021, published 2024).
# Assays:
# [1] = system: U251 Glioblastoma cell line; test: Cytotoxicity assay (MTT, 72 hours, daily administration) in U251; assay type: cell-based; settings: Homo sapiens, U-251, read-out: % VIABILITY ± S.D.
# Description: (§1) The combinations were effective in other human tumor cell lines and we tested in glioblastoma cell line and endometrial cancer cell Additional tests include data obtained from two independent experiments, six wells for dose.
# [2] = system: PCEM004a endometrial cancer cell line; test: Cytotoxicity assay (MTT, 72 hours, daily administration) in PCEM004a; assay type: cell-based; settings: Homo sapiens, read-out: % VIABILITY ± S.D.
# Description: as §1
# [3] = system: pancreatic adenocarcinoma associated genes; test: TaqMan Array gene expression in PANC-1, normalized for GAPDH; settings: 24 hs, CBD 3.8, MLT 200, AKBA 7.5 micrograms/ml
# Procedure: Total RNA from untreated or CBD, MLT, AKBA alone and in combination treated cell lines was extracted using Rneasy Mini kit (Qiagen, Milan, Italy). One microgram of total RNA from each sample was subjected to reverse transcription in a total volume of 20 μL using the High-Capacity cDNA Archive Kit (Applied Biosystem, Foster City, […], USA) according to the instructions. cDNAs were analyzed by qRT-PCR performed using an IQ5 Multicolor Real time PCR Detection system. Quantitative real-time gene expression was performed with the TaqMan® Array Human Pancreatic Adenocarcinoma 96-well Plate, containing 92 assays to pancreatic adenocarcinoma associated genes and 4 assays to candidate endogenous control genes, was purchased (Thermo Fisher, Grand Island, NY, USA) and used to evaluate the treatments in modulating PDAC-related genes (Table 1). Measurement of different housekeeping genes (GAPDH; HPRT1; GUSB) on the samples was used to normalize mRNA content. The gene expression levels of treated cell lines were expressed as relative fold compared with untreated or vehicle-treated cells.
# To elucidate the molecular events induced by CBD, MLT and AKBA alone and in combination, 92 genes involved in PDAC progression and aggressiveness were evaluated by Taqman Array. Both cell lines were treated with CBD, MLT and AKBA alone and in combination, and the molecular pathways of PDAC associated gene were evaluated.
# Target mRNA levels were normalized for GAPDH expression.
# [4] = system: PANC-1 cell line; test: Cytotoxicity assay (MTT, 72 hours, daily administration) in PANC-1; settings: Homo sapiens, PANC-1, read-out: % VIABILITY ± S.D.
# Procedure: Human pancreatic ductal adenocarcinoma (PANC-1 and MIAPaCa-2) cell lines were purchased by Sigma Aldrich (Milan, Italy) and cultured in DMEM high glucose medium (EuroClone, Milan, Italy) supplemented with 10% of fetal bovine serum (FBS), 2 mM L-glutamine, 100 IU/mL penicillin, 100 mg streptomycin and 1 mM sodium pyruvate. Cell lines were maintained at 37° C. with 5% CO2 and 95% of humidity.
# 3×10^4 cells/mL were seeded in 96-well plates in a final volume of 100 L/well. After one day of incubation, compounds or vehicles, alone or in combination, were added and six replicates were used for each treatment and all experiments were repeated three times. In all the experiments, the treatment was daily added, after washing with fresh medium. After 72 hours cell viability was investigated by adding 0.8 mg/mL of 3-[4,5-dimethylthiazol-2-yl]-2,5 diphenyl tetrazolium bromide (MTT) (Sigma Aldrich) to the media. After 3 h the supernatant was removed, and the pellet of salt crystals was solubilized with 100 μL/well of DMSO. The absorbance of the sample against a background control was measured at 570 nm using an ELISA reader microliter plate (BioTek Instruments, Winooski, VT, USA).
# Cytotoxicity in PDAC cell lines: The effect of CBD, MLT and AKBA in reducing cell viability was evaluated at 72 hours, post daily administration, in PDAC cell lines. Cells were treated with different doses of CBD, MLT and AKBA (up to 1 mg) and percentage of cell viability was evaluated by the MTT assay. […] The compounds were administered daily for 72 hours, as in previous experiments at the desired doses. […] MTT assay was used to analyse the cell cytotoxicity.
smiles,measurement,setting,value
"CC(=O)O[C@@H]1CC[C@@]2(C)[C@@H](CC[C@]3(C)[C@@H]2C(=O)C=C2[C@@H]4[C@@H](C)[C@H](C)CC[C@]4(C)CC[C@]23C)[C@@]1(C)C(=O)O [AKBA, (3R,4R,4aR,6aR,6bS,8aR,11R,12S,12aR,14aR,14bS)-3-acetyloxy-4,6a,6b,8a,11,12,14b-heptamethyl-14-oxo-1,2,3,4a,5,6,7,8,9,10,11,12,12a, 14a-tetradecahydropicene-4-carboxylic acid]",viability at 5 µg/mL,[1]; AKBA 5 micrograms/ml,100 ± 5.3%
same,viability at 7.5 µg/mL,[1]; AKBA 7.5 micrograms/ml,100 ± 6.6%
same,viability at 10 µg/mL,[1]; AKBA 10 micrograms/ml,100 ± 2.2%
same,viability at 15 µg/mL,[1]; AKBA 15 micrograms/ml,76.4 ± 4.2%
same,viability at 5 µg/mL,[2]; AKBA 5 micrograms/ml,100 ± 7.5%
same,viability at 7.5 µg/mL,[2]; AKBA 7.5 micrograms/ml,98.4 ± 6.3%
same,viability at 10 µg/mL,[2]; AKBA 10 micrograms/ml,87.4 ± 5.8%
same,viability at 15 µg/mL,[2]; AKBA 15 micrograms/ml,60.2 ± 5.4%
same,AKT3 mRNA relative expression,[3]; VEI 0.00,0.00
same,ARHGEF7 mRNA relative expression,[3]; VEI 0.00,0.00
same,BCL2 mRNA relative expression,[3]; VEI 0.00,0.00
same,CCND2 mRNA relative expression,[3]; VEI 0.00,0.00
same,CDKN2B mRNA relative expression,[3]; VEI 0.00,0.20
same,CYP2E1 mRNA relative expression,[3]; VEI 0.00,0.00
same,EGF mRNA relative expression,[3]; VEI 0.00,0.00
same,IGF1 mRNA relative expression,[3]; VEI 0.00,0.00
same,IL6 mRNA relative expression,[3]; VEI 0.00,0.00
same,KDR mRNA relative expression,[3]; VEI 0.00,0.00
same,KIT mRNA relative expression,[3]; VEI 0.00,0.00
same,MAPK3 mRNA relative expression,[3]; VEI 0.00,0.00
same,MMP1 mRNA relative expression,[3]; VEI 0.00,0.02
same,MMP3 mRNA relative expression,[3]; VEI 0.00,0.00
same,TGFA mRNA relative expression,[3]; VEI 0.00,0.02
same,TGFB2 mRNA relative expression,[3]; VEI 0.00,0.12
same,JAK2 mRNA relative expression,[3]; VEI 0.01,0.04
same,JAK3 mRNA relative expression,[3]; VEI 0.01,0.03
same,MMP7 mRNA relative expression,[3]; VEI 0.01,0.03
same,MMP9 mRNA relative expression,[3]; VEI 0.01,0.03
same,PK3CA mRNA relative expression,[3]; VEI 0.01,0.02
same,RAC2 mRNA relative expression,[3]; VEI 0.01,0.01
same,RB1 mRNA relative expression,[3]; VEI 0.01,0.15
same,TGFB3 mRNA relative expression,[3]; VEI 0.01,0.05
same,TGFBR1 mRNA relative expression,[3]; VEI 0.02,0.07
same,BRCA2 mRNA relative expression,[3]; VEI 0.03,0.10
same,CDKN2D mRNA relative expression,[3]; VEI 0.03,0.05
same,MDM2 mRNA relative expression,[3]; VEI 0.03,0.04
same,RHOB mRNA relative expression,[3]; VEI 0.03,0.05
same,CDKN2C mRNA relative expression,[3]; VEI 0.04,0.12
same,PK3R1 mRNA relative expression,[3]; VEI 0.04,0.03
same,PTGS2 mRNA relative expression,[3]; VEI 0.04,0.08
same,STATSB mRNA relative expression,[3]; VEI 0.04,0.20
same,MAPK1 mRNA relative expression,[3]; VEI 0.05,0.60
same,SMAD2 mRNA relative expression,[3]; VEI 0.05,0.04
same,CCND1 mRNA relative expression,[3]; VEI 0.06,0.10
same,MAP2K2 mRNA relative expression,[3]; VEI 0.06,0.10
same,PK3CD mRNA relative expression,[3]; VEI 0.06,0.05
same,TGFBR2 mRNA relative expression,[3]; VEI 0.06,0.10
same,VEGFA mRNA relative expression,[3]; VEI 0.06,0.45
same,VEGFB mRNA relative expression,[3]; VEI 0.06,0.18
same,CCNA2 mRNA relative expression,[3]; VEI 0.07,0.10
same,CCNE2 mRNA relative expression,[3]; VEI 0.07,0.06
same,EZF3 mRNA relative expression,[3]; VEI 0.07,0.07
same,SMAD4 mRNA relative expression,[3]; VEI 0.07,0.09
same,SOS1 mRNA relative expression,[3]; VEI 0.07,0.10
same,TGFB1 mRNA relative expression,[3]; VEI 0.07,0.15
same,MAP2K1 mRNA relative expression,[3]; VEI 0.08,0.10
same,MMP2 mRNA relative expression,[3]; VEI 0.08,0.20
same,VEGFC mRNA relative expression,[3]; VEI 0.08,0.12
same,CCNE1 mRNA relative expression,[3]; VEI 0.09,0.10
same,CDK2 mRNA relative expression,[3]; VEI 0.09,0.10
same,KRAS mRNA relative expression,[3]; VEI 0.09,0.09
same,RAC1 mRNA relative expression,[3]; VEI 0.09,0.10
same,REL mRNA relative expression,[3]; VEI 0.09,0.08
same,STAT2 mRNA relative expression,[3]; VEI 0.09,0.11
same,CDKN1B mRNA relative expression,[3]; VEI 0.10,0.10
same,CDKN2A mRNA relative expression,[3]; VEI 0.10,0.12
same,RELA mRNA relative expression,[3]; VEI 0.10,0.10
same,AKT1 mRNA relative expression,[3]; VEI 0.11,0.20
same,PK3CB mRNA relative expression,[3]; VEI 0.11,0.16
same,FIGF mRNA relative expression,[3]; VEI 0.14,0.00
same,TP53 mRNA relative expression,[3]; VEI 0.14,0.38
same,EZF4 mRNA relative expression,[3]; VEI 0.16,0.18
same,NFKB2 mRNA relative expression,[3]; VEI 0.16,0.10
same,EZF1 mRNA relative expression,[3]; VEI 0.17,0.14
same,SMAD3 mRNA relative expression,[3]; VEI 0.17,0.20
same,STAT1 mRNA relative expression,[3]; VEI 0.18,0.31
same,BRAF mRNA relative expression,[3]; VEI 0.22,0.18
same,BIRC5 mRNA relative expression,[3]; VEI 0.23,0.22
same,JAK1 mRNA relative expression,[3]; VEI 0.23,1.10
same,CDK4 mRNA relative expression,[3]; VEI 0.24,0.25
same,EGFR mRNA relative expression,[3]; VEI 0.24,0.18
same,RAF1 mRNA relative expression,[3]; VEI 0.25,0.08
same,CCNB1 mRNA relative expression,[3]; VEI 0.27,0.20
same,ERBB2 mRNA relative expression,[3]; VEI 0.27,0.07
same,SRC mRNA relative expression,[3]; VEI 0.27,0.14
same,GRB2 mRNA relative expression,[3]; VEI 0.31,0.38
same,BCL2L1 mRNA relative expression,[3]; VEI 0.35,0.23
same,HSP90AA1 mRNA relative expression,[3]; VEI 0.35,0.22
same,NFKB1 mRNA relative expression,[3]; VEI 0.35,0.10
same,RHOA mRNA relative expression,[3]; VEI 0.37,0.30
same,ELK1 mRNA relative expression,[3]; VEI 0.41,0.11
same,RELB mRNA relative expression,[3]; VEI 0.42,0.12
same,CDC42 mRNA relative expression,[3]; VEI 0.45,0.02
same,CDKN1A mRNA relative expression,[3]; VEI 0.49,0.28
same,AKT2 mRNA relative expression,[3]; VEI 0.50,0.41
same,HBEGF mRNA relative expression,[3]; VEI 0.53,0.44
same,NOTCH1 mRNA relative expression,[3]; VEI 1.03,0.05
same,STAT6 mRNA relative expression,[3]; VEI 1.38,0.13
same,STAT3 mRNA relative expression,[3]; VEI 4.45,0.18
same,viability at 5 µg/mL,[4],92.1 ± 5.3%
same,viability at 7.5 µg/mL,[4],86.2 ± 6.6%
same,viability at 10 µg/mL,[4],78.2 ± 5.9%
same,viability at 15 µg/mL,[4],55.3 ± 4.4%
